Measurements: patent US20050032866A1, “The use of 5ht4 receptor antagonists in the prophylaxis or treatment of certain cardiovascular conditions” (priority 2000, published 2005)
“And” between values parts separate entries of the source, which are not always exact repeats. Equal values may be shown once.

Legend:
[1] = target: 5-HT4B receptor (Homo sapiens, UniProt Q13639); assay: 5-HT4B receptor antagonism; assay type: biochemical
[2] = target: T1, 5-HT4 receptor (Cavia porcellus, UniProt O70528); assay: guinea pig distal colon longitudinal muscle-myenteric plexus, 5-HT-evoked contraction; assay type: cell-based
T1 construct: Longitudinal muscle-myenteric plexus preparations, approximately 3 cm long, are obtained from the distal colon region; from tissue; host or cells: guinea-pig distal colon longitudinal muscle-myenteric plexus
Experimental: Male guinea-pigs, weighing 250-400 g are used.
In some experiments, this tissue was dosed alternately with an approximately equi-effective concentration of the nicotine receptor stimulant, dimethylphenylpiperazinium (DMPP).

[3] = tested on: 5-HT-induced atrial arrhythmia in anesthetized Yucatan minipigs; assay: 5-HT-induced atrial fibrillation / atrial remodelling after rapid atrial pacing in anesthetized Yucatan minipigs; assay type: in vivo, Yucatan minipig; conditions: for AERP (Example 2): sensitized pigs, predrug 90±3; for AF inducibility: 64±6% prior to treatment, 10 bursts of pacing; for mean duration of AF episodes: pre-drug 1.9±0.4
Experimental: The antiarrhythmic efficacy of SB-207266 (0.3 and 1.0 mg/kg, intravenous) was evaluated on the inducibility of AF in a model of 5-HT-induced atrial arrhythmia in anesthetized Yucatan minipigs. […] The atrial effective refractory period (AERP) and AF inducibility were determined during programmed stimulation and burst electrical pacing.
Animals. Male Yucatan minipigs (12-17 kg weight) were obtained from Charles River (Saint-Aubin les Elboeuf, France) and were maintained at rest over a 2-week acclimatision period prior to experiments.
Surgical Preparation of Animals. The minipigs (Charles River, France) were fasted and premedicated (2 mg/kg diazepam+15 mg/kg ketamine, i.m.) before induction of anesthesia by isoflurane inhalation (5% for induction followed by 0.5 to 1.5% for technical preparation) in a mixture of 25% O2 and 75% N2O. The long term anesthesia was maintained with an i.v. infusion of sodium pentobarbital (12 mg/kg/h). A mechanical ventilator (Harvard pump 613) was used to provide artificial respiration during the left thoracotomy in order to keep arterial blood gases and pH within the normal limits (ABL 500 analyzer). Fluid filled catheters were placed in the femoral artery and vein to measure the arterial pressure (P23 ID transducer) and for drug administrations, respectively. Leads II, III and a precordial lead of electrocardiogram were placed for monitoring of standard ECG parameters. Two pairs of electrodes were hooked to the left atrial wall for subsequent stimulation (S8800 stimulator and SIU-5 unit) and for measurement of an atrial electrogram.
Sensitization of the Atrial Tissue. The left atrial appendage was sensitized by rapid atrial pacing (200 ms cycle length over 3 hours) to generate an initial electrical remodelling of the tissue [A. Goette et al., 1996, Circulation, 94, 2968-2974]. […] The cellulose patch retains the 5-HT in contact with the tissue.
Electrophysiologic Study. The atrial effective refractory period (AERP) was determined using a conventional single extrastimulus technique as previously described [A. Bril, B. Gout et al., J. Pharmacol. Exp. Ther., 1996, 276, 637-646.]. Briefly, a 8-stimulus train at a basic cycle length 20% shorter than the sinus rhythm was followed by a single premature extrastimulus (4 ms, 1.5 times threshold current) introduced at progressively shorter coupling intervals from the atrial pacing until no atrial response was obtained.
After determination of AERP, the atrial fibrillation (AF) challenge was started. AF was induced following atrial pacing by a 2 sec-burst of stimulation (basic cycle length 20 ms cycle length, 2 ms duration, twice the diastolic threshold) introduced within the vulnerable window (AERP+10 ms). AF was defined as at least 1 sec of irregular electrical activity measured on atrial electrogram.
Study Design and Dosing. After assessment of reproducible baseline responses of animals (3 successive AF challenges), the minipigs were randomly assigned to receive either sterile distilled water (vehicle group, n=7), or escalating doses of SB-207266 (0.3 and 1.0 mg/kg, n=7) given i.v. over a 10 min period 15 min before determination of AERP and subsequent AF challenge. SB-207266 was dissolved in sterile distilled water and adequate drug solutions were prepared every day. Treatment with vehicle represented a volume of distilled water similar to that used for drug solution (10 ml). Each dose of SB-207266 was administered at 45 min intervals to allow recovery of animals from previous burst pacing challenge.
Measurements and Calculations. All parameters were monitored on a chart paper polyrecorder (TA-5000) and digital recording was performed throughout the protocol (DTR 1800). When measured, heart rate was calculated from the ECG and the mean arterial blood pressure was calculated from the pulse pressure. A corrected QT was determined according to the Bazett's formula (QTc=QT (ms)/RR (sec)^1/2). […]

[4] = preliminary studies of side-effects at human daily oral doses; assay type: in vivo; conditions: corresponds to about 1.6 to 1.7 mg/kg/day or more
[5] = plasma pharmacokinetics of SB 207266 on once daily oral dosing; assay type: in vivo, human
[6] = plasma concentration of SB-207266 in minipig (LC/MS/MS); assay type: in vivo, Yucatan minipig; conditions: 5 min after end of bolus
Experimental: Evaluation of Plasma Concentration of SB-207266. For each AF challenge, blood samples were collected on EDTA (6%) 5 min after the end of the bolus administration of drug (time point 15 min, see asterisks in FIG. 4A) and centrifuged (1500×g, 10 min at 4° C.). The plasma samples were stored at −80° C. for subsequent analysis. Plasma samples were not collected in the vehicle group. The determination of plasma concentration of SB-207266 was performed by LC/MS/MS with a LLQ for this assay of 5 ng/ml in the pig.

[7] = tested on: 5-HT-induced atrial arrhythmia in anesthetized Yucatan minipigs; assay: 5-HT-induced atrial fibrillation / atrial remodelling after rapid atrial pacing in anesthetized Yucatan minipigs; assay type: in vivo, Yucatan minipig; conditions: 5-HT alone, topical application for 3 hours, no pacing; control 110.2±1.9; not significant; n=6
[8] = target: 5-HT3A receptors (Homo sapiens, UniProt P46098); conditions: cited from earlier work
[9] = target: 5-HT4A receptors (Homo sapiens, UniProt Q13639); conditions: cited from earlier work
[10] = target: 5-HT1C (Homo sapiens, UniProt P28335); assay: radioligand selectivity, 5-HT1C receptors; assay type: binding; conditions: read-out: pKi at 5-HT1C (converted)
[11] = target: piglet hippocampal 5-HT4 receptors (Sus scrofa, UniProt Q6Q253); assay: binding to piglet hippocampal 5-HT4 receptors, 125I-labelled SB-207710; conditions: piglet hippocampal membranes, n=4
[12] = target: 5-HT1A (Homo sapiens, UniProt P08908); assay: radioligand selectivity, 5-HT1A receptors; assay type: binding; conditions: read-out: pKi at 5-HT1A (converted)
Chain of 5-HT1A (P08908 whole entry, species assumed): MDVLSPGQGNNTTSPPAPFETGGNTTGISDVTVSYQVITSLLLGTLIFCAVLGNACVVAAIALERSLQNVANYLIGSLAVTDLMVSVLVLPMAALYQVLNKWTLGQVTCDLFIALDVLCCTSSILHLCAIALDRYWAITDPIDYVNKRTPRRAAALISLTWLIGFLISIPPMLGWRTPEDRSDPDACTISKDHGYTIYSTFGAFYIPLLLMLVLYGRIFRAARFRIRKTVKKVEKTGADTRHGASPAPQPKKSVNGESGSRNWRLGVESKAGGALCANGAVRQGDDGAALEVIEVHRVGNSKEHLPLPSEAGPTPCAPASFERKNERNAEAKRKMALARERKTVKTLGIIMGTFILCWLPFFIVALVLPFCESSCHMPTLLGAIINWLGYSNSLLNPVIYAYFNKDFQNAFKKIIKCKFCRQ

Chain of 5-HT4A receptors (Q13639 1-387 isoform Q13639-2): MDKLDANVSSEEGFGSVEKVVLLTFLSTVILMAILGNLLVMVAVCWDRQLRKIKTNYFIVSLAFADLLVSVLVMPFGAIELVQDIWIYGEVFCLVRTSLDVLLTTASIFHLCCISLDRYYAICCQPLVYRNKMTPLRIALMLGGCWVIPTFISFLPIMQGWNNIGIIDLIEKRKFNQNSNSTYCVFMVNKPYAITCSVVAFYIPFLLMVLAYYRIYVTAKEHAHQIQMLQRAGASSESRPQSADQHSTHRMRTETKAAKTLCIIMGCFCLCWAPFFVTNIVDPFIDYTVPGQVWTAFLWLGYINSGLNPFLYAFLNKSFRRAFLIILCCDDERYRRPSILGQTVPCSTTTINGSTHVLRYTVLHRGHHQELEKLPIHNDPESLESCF
Chain of 5-HT4B receptor (Q13639 whole entry): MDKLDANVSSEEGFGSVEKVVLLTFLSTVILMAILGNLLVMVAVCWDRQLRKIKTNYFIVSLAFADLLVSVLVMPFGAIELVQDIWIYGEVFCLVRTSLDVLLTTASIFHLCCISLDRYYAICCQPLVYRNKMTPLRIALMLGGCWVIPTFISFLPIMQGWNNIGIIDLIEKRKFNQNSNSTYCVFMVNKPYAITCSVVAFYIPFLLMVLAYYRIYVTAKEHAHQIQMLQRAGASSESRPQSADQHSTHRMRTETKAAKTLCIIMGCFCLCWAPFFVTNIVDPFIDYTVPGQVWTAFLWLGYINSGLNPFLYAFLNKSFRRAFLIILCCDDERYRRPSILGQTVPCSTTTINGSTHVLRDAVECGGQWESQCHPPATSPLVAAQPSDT
Chain of 5-HT3A receptors (P46098 24-478): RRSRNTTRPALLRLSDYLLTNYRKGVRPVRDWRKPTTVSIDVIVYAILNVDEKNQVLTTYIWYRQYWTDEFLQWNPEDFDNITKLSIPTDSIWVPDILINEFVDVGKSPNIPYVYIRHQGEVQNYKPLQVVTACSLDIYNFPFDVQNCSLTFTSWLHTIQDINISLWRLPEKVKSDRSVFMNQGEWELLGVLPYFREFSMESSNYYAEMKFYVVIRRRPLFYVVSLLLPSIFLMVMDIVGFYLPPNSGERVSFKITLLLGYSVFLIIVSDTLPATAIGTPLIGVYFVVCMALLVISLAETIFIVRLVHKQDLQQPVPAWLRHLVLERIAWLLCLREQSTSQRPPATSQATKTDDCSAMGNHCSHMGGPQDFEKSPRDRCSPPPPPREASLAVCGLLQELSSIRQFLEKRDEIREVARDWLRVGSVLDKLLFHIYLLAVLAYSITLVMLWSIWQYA
Chain of piglet hippocampal 5-HT4 receptors (Q6Q253 1-402): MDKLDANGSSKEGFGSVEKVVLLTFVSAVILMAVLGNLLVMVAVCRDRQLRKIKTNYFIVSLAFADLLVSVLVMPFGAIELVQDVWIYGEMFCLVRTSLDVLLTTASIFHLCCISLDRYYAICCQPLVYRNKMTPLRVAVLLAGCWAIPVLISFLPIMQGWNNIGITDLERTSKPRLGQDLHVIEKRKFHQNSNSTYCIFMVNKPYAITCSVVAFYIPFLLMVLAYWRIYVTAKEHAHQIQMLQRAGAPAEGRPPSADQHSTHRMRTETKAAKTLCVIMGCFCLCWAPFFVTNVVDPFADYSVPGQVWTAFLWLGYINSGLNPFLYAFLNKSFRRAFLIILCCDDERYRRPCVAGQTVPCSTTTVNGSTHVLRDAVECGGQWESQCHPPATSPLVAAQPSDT
T1 sequence (O70528 whole entry): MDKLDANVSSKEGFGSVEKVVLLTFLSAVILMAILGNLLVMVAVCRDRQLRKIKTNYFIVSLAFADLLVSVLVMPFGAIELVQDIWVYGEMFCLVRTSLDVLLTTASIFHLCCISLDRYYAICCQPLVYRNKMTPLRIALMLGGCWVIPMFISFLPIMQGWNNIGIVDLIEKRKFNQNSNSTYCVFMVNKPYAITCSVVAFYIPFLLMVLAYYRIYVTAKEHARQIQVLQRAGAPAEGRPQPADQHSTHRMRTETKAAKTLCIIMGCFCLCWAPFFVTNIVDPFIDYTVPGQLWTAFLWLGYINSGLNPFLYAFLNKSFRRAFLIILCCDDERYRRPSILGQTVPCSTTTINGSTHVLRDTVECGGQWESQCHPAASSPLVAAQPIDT
Chain of 5-HT1C (P28335 33-458, species assumed): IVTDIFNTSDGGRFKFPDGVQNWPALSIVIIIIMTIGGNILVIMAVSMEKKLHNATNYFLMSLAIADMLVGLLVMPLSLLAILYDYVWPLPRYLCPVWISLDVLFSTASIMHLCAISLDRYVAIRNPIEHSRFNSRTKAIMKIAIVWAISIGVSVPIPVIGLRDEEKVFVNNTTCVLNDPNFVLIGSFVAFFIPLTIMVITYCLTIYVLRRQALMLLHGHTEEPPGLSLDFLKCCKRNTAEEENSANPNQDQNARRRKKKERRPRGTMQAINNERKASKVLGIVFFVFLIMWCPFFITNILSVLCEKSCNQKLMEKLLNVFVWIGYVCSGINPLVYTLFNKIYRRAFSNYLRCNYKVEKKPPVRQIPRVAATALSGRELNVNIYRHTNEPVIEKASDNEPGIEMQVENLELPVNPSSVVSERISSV

CCCCN1CCC(CNC(=O)c2c3n(c4ccccc24)CCCO3)CC1 [SB 207266, N-[(1-^nbutyl-4-piperidinyl)methyl]-3,4-dihydro-2H-[1,3]oxazino[3,2-a]indole-10-carboxamide]
5-HT4B receptor antagonism [1]: 5-HT4B antagonist and found to antagonise 5HT4B receptors
5-HT4 receptor antagonist activity in guinea pig colon [2]: particularly good activity
AERP (Example 1) ([3]; 0.3 mg/kg i.v., after pacing and 5-HT, pre-drug 90.0±2.7, p<0.01 vs vehicle): 102.3 ± 2.7 ms
AERP (Example 2) ([3]; 0.3 mg/kg i.v.): 102 ± 3 ms
AF inducibility ([3]; 0.3 mg/kg i.v.): 46±11%
mean duration of AF episodes ([3]; 0.3 mg/kg i.v.): 1.1 ± 0.4 s and 1.1 ± 0.2 s
decrease in AERP caused by rapid atrial pacing plus 5-HT application ([3]; 1.0 mg/kg i.v.): fully restored
AERP (Example 1) ([3]; 1.0 mg/kg i.v., after pacing and 5-HT, pre-drug 90.0±2.7, p<0.01 vs vehicle): 110.0 ± 3.6 ms
AERP (Example 2) ([3]; 1.0 mg/kg i.v.): 110 ± 4 ms
AF inducibility ([3]; 1.0 mg/kg i.v.): 30±9%
mean duration of AF episodes ([3]; 1.0 mg/kg i.v.): No further reduction
human daily oral dose that might give rise to certain side-effects [4]: ≥ 120 mg
half-life ([5]; human, plasma, oral, read-out: elimination half-life T½): 20 to 24 h
time to reach steady-state plasma concentrations ([5]; once daily dosing): 4 to 5 days
plasma concentration on day 4 as share of the steady-state plasma concentration ([5]; once daily dosing, day 4): about 90%
extent of accumulation ([5]; once daily oral dosing): approximately 1.5 fold
plasma level of SB-207266 ([6]; 0.3 mg/kg i.v., n=6): 137.7 ± 15.2 ng/mL
plasma level of SB-207266 ([6]; 1.0 mg/kg i.v., n=5): 562.3 ± 40.1 ng/mL

NCCc1c[nH]c2ccc(O)cc12 [5-HT, reference compound]
AERP [7]: 104.0 ± 6.5 ms
AERP ([3]; 5-HT applied after 3 h rapid atrial pacing, pacing alone 93.6±3.6): 91.8 ± 3.3 ms
AERP (Example 1) ([3]; rapid atrial pacing and application of 5-HT, before vehicle or drug, from 111.6±2.6): 90.9 ± 2.1 ms

COc1[nH]c2ccc(F)cc2c1C(=O)OCC1CCN(CCNS(C)(=O)=O)CC1 [GR 125487, [1-[2-[(Methylsulphonyl)amino]ethyl]-4-piperidinyl]methyl 5-fluoro-2-methoxy-1H-indole-3-carboxylate]
pKi at 5-HT3A receptors [8]: < 6.5
pKi at 5-HT4A receptors [9]: 10.0

CCCCN1CCC(COC(=O)c2cc(I)c(N)c3c2OCCO3)CC1 [SB-207710, (1-butyl-4-piperidyl)methyl 8-amino-7-iodo-1,4-benzodioxan-5-carboxylate]
Ki [10]: ≥ 1000 nM
Bmax of radioligand [11]: 16±3 fmol/mg protein
Ki [12]: ≥ 1000 nM

Cc1noc(-c2ccccc2NC(=O)OCC2CCN(CCNS(C)(=O)=O)CC2)n1 [GR 138897, [1-[2-[(Methylsulphonyl)amino]ethyl]-4-piperidinyl]methyl[2-(3-methyl-1,2,4-oxadiazol-5-yl)phenyl]carbamate]
pKi at 5-HT3A receptors [8]: < 5.0
pKi at 5-HT4A receptors [9]: 10.3
